This is an account of results in patent publication US8173668B1 (Alcon Research, Ltd., priority 2007, dated 2012).

Structures are written as SMILES.

Test [1] addresses T1, B2-receptors in h-CM cells (Homo sapiens, UniProt P30411).
T1 construct: B2-receptor proteins in h-TM, h-CM and h-NPE cells; endogenous in cells; host or cells: human trabecular meshwork (h-TM), human ciliary muscle (h-CM) and human non-pigmented ciliary epithelial (h-NPE) cells
T1 sequence (P30411 1-391): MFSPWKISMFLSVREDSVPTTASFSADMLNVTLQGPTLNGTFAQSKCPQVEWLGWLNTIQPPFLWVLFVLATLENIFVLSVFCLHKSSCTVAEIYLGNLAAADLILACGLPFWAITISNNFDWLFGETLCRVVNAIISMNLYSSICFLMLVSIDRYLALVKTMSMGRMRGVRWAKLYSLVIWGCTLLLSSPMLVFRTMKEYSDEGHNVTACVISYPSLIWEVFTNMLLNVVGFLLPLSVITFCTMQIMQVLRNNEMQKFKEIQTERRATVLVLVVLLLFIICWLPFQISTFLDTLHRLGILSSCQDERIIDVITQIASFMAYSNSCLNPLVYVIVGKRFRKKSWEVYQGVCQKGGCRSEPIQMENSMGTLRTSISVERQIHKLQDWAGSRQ
The test can be described thus: [Ca2+]i mobilization (FLIPR) in h-CM cells, agonist mode. Format: cell-based. The conditions noted are these: h-CM cells, mean ± SEM. The method, then:
On the day of the experiment, one vial of FLIPR Calcium Assay Kit dye is re-suspended in 50 mL of a FLIPR buffer consisting of Hank's Balanced Salt Solution (HBSS), 20 mM HEPES, and 2.5 mM probenecid, pH 7.4. Cells are loaded with the calcium-sensitive dye by addition of an equal volume (50 μL) to each well of the 96-well plate and incubated with dye for 1 h at 23° C. After this time, the test compound plate and cell plate are placed in the FLIPR instrument. At the beginning of an experimental run, a signal test is performed to check the basal fluorescence signal from the dye-loaded cells and the uniformity of the signal across the plate. The basal fluorescence is adjusted between 8000-12000 counts by modifying the exposure time, the camera F-stop, or the laser power. Instrument settings for a typical assay are the following: laser power 0.3-0.6 W, camera F-stop F/2, and exposure time 0.4 sec.
Fluorescence data are collected in real-time at 1.0 sec intervals for the first 60 secs and at 6.0 sec intervals for an additional 120 secs. […] The data are then analyzed using an automated, iterative, sigmoidal curve-fitting computer program to obtain the potency and intrinsic activities of the test agents as previously described (Sharif et al. J. Pharmacol. Exp. Ther. 286: 1094-1102, 1998; Sharif et al. Invest. Ophthalmol. Vis. Sci. 39:2562-2571, 1998; Kelly et al. J. Pharmacol. Exp. Ther. 304: 238-245, 2003). The sources of materials and reagents for such assays can be found in the references cited above.

Another test deals with h-CM cells. The test can be described thus: MMP activity in h-CM cells after 24 hour exposure. The note with it: 1 μM. Format: cell-based, human. How it is done: As with FP-class prostanoids, the IOP-lowering effects of BK may involve the stimulation of production of various MMPs that in turn digest the extracellular matrix (ECM) to promote outflow and thus lower IOP (Mietz et al., Invest. Ophthalmol. Vis. Sci. 44: 5182-5188, 2003; Webb et al., J. Ocular Pharmacol. Ther. 22: 310-316, 2006). Cells isolated from human or animal ocular or non-ocular tissues, or cells expressing recombinant (preferably human) BK receptors are seeded in 48-wells culture plates and allowed to reach confluence. […] BK (100 nM) can be used a positive control compound. After this time the supernatant from each well is concentrated 20-fold (Centricon Concentrators; Millipore Corp., Bedford, Mass.). Equivalent volumes of media are then loaded onto 12% sodium dodicyl sulfate polyacrylamide gels, where the secreted proteins are separated according to their molecular weights by standard SDS-polyacrylamide gel electrophoresis protocols and transferred onto nitrocellulose paper. The level of MMP-1, MMP-2, MMP-3 and MMP-9 is then determined by immunoblot analysis with rabbit polyclonal anti-MMP antibodies. Bands are visualized by the addition of anti-rabbit horseradish peroxidase-conjugated secondary antibodies (New England Biolabs, Inc.; Beverly, Mass.) and enhanced chemiluminescent reagents (Pierce Biotechnology, Inc., Rockford, Ill.) (Mietz et al., Invest. Ophthalmol. Vis. Sci. 44: 5182-5188, 2003; Webb et al., J. Ocular Pharmacol. Ther. 22: 310-316, 2006). BK agonists should stimulate the production of some or all of MMP-1, MMP-2, MMP-3 and MMP-9. […] However, BK agonists with lower potencies than the above limits, whether partial or full agonists, can still be considered useful ocular hypotensive agents and may be useful as such.
Enhancement of such MMP synthesis and release by h-CM in response to FR-190997 may explain the efficacious IOP-lowering observed with this BK agonist in the glaucomatous monkey eyes (see below).

In general, Emax refers to the size of the effect at its maximum, as opposed to the concentration needed. By EC50 is commonly meant the concentration at which the effect is half-maximal. Turning to `CNC(=O)c1ccc(/C=C/C(=O)NCC(=O)N(C)c2ccc(Cl)c(COc3cccc4c(OCc5ccccn5)cc(C)nc34)c2Cl)cc1` [FR-190997], the Emax in test [1] (read-out: Intrinsic Activity (Emax, % max relative to BK)) was 63%. In addition, in test [1] (read-out: Potency (EC50), [Ca2+]i mobilization), the EC50 came out at 174 ± 21 nM. In the test with h-CM cells, the MMP-1 activity was found to be 59 % above basal levels, the MMP-2 activity entry was “not MMP-2 activity” and the MMP-3 activity turned out to be 96 % above basal levels.
